Measurements taken from article PMC7261408 (Molecular pharmaceutics, 2017).
“Also recorded” adds a separate entry of the source. Read-outs that look alike come from different tables or passages of the source.

How the values were obtained:
TZM-bl cells [1] = experiment: MTT cell proliferation; settings: for TI (toxicity index; ratio of cytotoxicity to neutralization IC50 values): MTT assay; for cellular cytotoxicity (in words): MTT cell proliferation assay; for cytotoxic at concentrations above: cellular cytotoxicity assays
HIV-1 HxB2 (X4) = settings: read-out: IC50 HxB2 (X4); cited from earlier work
[2] = test system: HIV-1 YU2 pseudotyped viral particles; settings: read-out: IC50 YU2 (R5); TZM-bl cells; cited from earlier work
[3] = Peptide stability in PBS and cell growth medium with serum; type: in vitro ADME; settings: PBS and cell growth medium (DMEM) complemented with fetal bovine serum, 37 °C, 5% CO2, 24 h monitoring; LC–MS
[4] = test system: amphotropic pseudotyped murine leukemia virus; experiment: Neutralization of amphotropic pseudotyped murine leukemia virus; type: cell-based
[5] = test system: YU2 pseudotyped HIV virus; settings: combination 2C:Nt, cited from earlier work
HIV-1 NL4–3 (X4) = settings: read-out: IC50 NL4–3 (X4); cited from earlier work
[6] = test system: vesicular stomatitis virus; type: cell-based
[7] = test system: HIV-1 BaL virions (gp120); experiment: HIV-1 virion capture assay with gp120-specific mAbs; type: binding; settings: peptide 50 μM; sCD4–2D-treated HIV-1 BaL; captured p24 Gag by AlphaLISA
TZM-bl cells [8] = settings: effects on host cell line TZM-bl; cited from earlier work
HIV-1 BaL26 (R5) = settings: read-out: IC50 BaL26 (R5); TZM-bl cells; cited from earlier work
[9] = test system: HIV-1 YU2 pseudotyped viral particles; settings: neutralization assay

In the case of Ac-CSSHFPFSQFQFWK-NH2 [16-5], the “TI (toxicity index; ratio of cytotoxicity to neutralization IC50 values)” value (TZM-bl cells [1]) is reported as >50 µM and the “cellular cytotoxicity (in words)” value (TZM-bl cells [1]) is reported as “cytotoxic”.

For Ac-CSSHFPFSQVQFWK-NH2 [16-6], the “TI (toxicity index; ratio of cytotoxicity to neutralization IC50 values)” value (TZM-bl cells [1]) was >5 µM and the “cellular cytotoxicity (in words)” value (TZM-bl cells [1]) was “cytotoxic”.

With Ac-CSSHFPFSQYQFWK-NH2 [16-2] the “TI (toxicity index; ratio of cytotoxicity to neutralization IC50 values)” value (TZM-bl cells [1]) was >63 to 250 µM and the “cytotoxic at concentrations above” value (TZM-bl cells [1]) was “above 65 μM”.

For Ac-CSSHFPWSQVQFWK-NH2 [16-7], the “TI (toxicity index; ratio of cytotoxicity to neutralization IC50 values)” value (TZM-bl cells [1]) was >75 µM and the “cellular cytotoxicity (in words)” value (TZM-bl cells [1]) was “cytotoxic”.

In the case of Ac-CSSHFPYSQFQFWK-NH2 [16-4], the “TI (toxicity index; ratio of cytotoxicity to neutralization IC50 values)” value (TZM-bl cells [1]) is reported as >100 µM and the “cellular cytotoxicity (in words)” value (TZM-bl cells [1]) is reported as “cytotoxic”.

For “Ac-CSSHFPYSQYQFWK-NH2 [2C, reference compound]”, the IC50 (HIV-1 HxB2 (X4)) is listed as 54 µM, the IC50 [2] is listed as 28 ± 7 µM and the “glutathione (GST) adducts detected starting around” value [3] is listed as “around 30 min”. For the same substance, the “activity toward amphotropic pseudotyped murine leukemia virus (in words)” value [4] was “inactive”, the “dose reduction index (DRI)” value ([5]; ratio 1:1) was 2.1 ± 0.4 and the “dose reduction index (DRI)” value ([5]; ratio 1:2) was 2.6 ± 0.5. The “dose reduction index (DRI)” value ([5]; ratio 1:5) was 4.9 ± 1.0, the IC50 (HIV-1 NL4–3 (X4)) was 53 ± 2 µM and the “activity toward vesicular stomatitis virus (in words)” value [6] was “inactive”. The “inhibition of virion capture by mAb 19b” value [7] was “effectively blocked virus capture”, the “inhibition of virion capture by mAb 268-D” value [7] was “effectively blocked virus capture” and the “inhibition of virion capture by mAb 48d” value [7] was “effectively blocked virus capture; also recorded: to a lesser extent”. For the same substance, the “inhibition of virion capture by mAb B4e8 (V3 tip)” value [7] was “neither 2C nor 40-2 blocked capture; also recorded: neither inhibited virion capture”, the “inhibition of virion capture by mAb D19 (V3 tip)” value [7] was “neither 2C nor 40-2 blocked capture; also recorded: neither inhibited virion capture” and the LC50 (TZM-bl cells [8]) was 190 µM. For the same substance, the IC50 (HIV-1 BaL26 (R5)) was 65 ± 3 µM.

In the case of Ac-CSSYFPFSQYQFWK-NH2 [18-2], the “TI (toxicity index; ratio of cytotoxicity to neutralization IC50 values)” value (TZM-bl cells [1]) is reported as >63 to 125 µM and the “cytotoxic at concentrations above” value (TZM-bl cells [1]) is reported as “above 65 μM”.

For Ac-CSSYFPFSQYQWWK-NH2 [20-2], the “glutathione (GST) adducts detected starting around” value [3] was “around 30 min”, the “TI (toxicity index; ratio of cytotoxicity to neutralization IC50 values)” value (TZM-bl cells [1]) was >250 µM and the “cellular cytotoxicity (in words)” value (TZM-bl cells [1]) was “nontoxic at relevant concentrations”.

With Ac-CSSYFPWSQYQWWK-NH2 [30-2] the “TI (toxicity index; ratio of cytotoxicity to neutralization IC50 values)” value (TZM-bl cells [1]) was >500 µM, the “cellular cytotoxicity (in words)” value (TZM-bl cells [1]) was “nontoxic at relevant concentrations” and the LC50 (TZM-bl cells [1]; effects on host cell line TZM-bl, standard deviations averaged 20%, Non-toxic = nontoxic at 500 μM) was “Non-toxic^f”.

With Ac-CSSYYPFSQYQWWK-NH2 [20-5] the “cellular cytotoxicity (in words)” value (TZM-bl cells [1]) was “nontoxic at relevant concentrations”.

In the case of Ac-SSHFPFSQRQFWK-NH2 [14-1], the “TI (toxicity index; ratio of cytotoxicity to neutralization IC50 values)” value (TZM-bl cells [1]) is reported as >500 to 1000 µM.

In the case of Ac-SSHFPFSQVQFWK-NH2 [14-5], the “activity against R5-tropic strain YU2 (in words)” value [9] is reported as “low activity” and the “TI (toxicity index; ratio of cytotoxicity to neutralization IC50 values)” value (TZM-bl cells [1]) is reported as >500 µM.

In the case of Ac-SSHFPFSQYQFWK-NH2 [12-2], the “activity against R5-tropic strain YU2 (in words)” value [9] is reported as “modest gains in potency” and the “TI (toxicity index; ratio of cytotoxicity to neutralization IC50 values)” value (TZM-bl cells [1]) is reported as >500 µM.

For Ac-SSHFPVSQYQFWK-NH2 [12-3], the “activity against R5-tropic strain YU2 (in words)” value [9] was “modest gains in potency”, the “TI (toxicity index; ratio of cytotoxicity to neutralization IC50 values)” value (TZM-bl cells [1]) was >5 µM and the “cellular cytotoxicity (in words)” value (TZM-bl cells [1]) was “cytotoxic”.

In the case of Ac-SSHFPWSQRQFWK-NH2 [14-2], the “TI (toxicity index; ratio of cytotoxicity to neutralization IC50 values)” value (TZM-bl cells [1]) is reported as >500 to 1000 µM.

For Ac-SSHFPWSQVQFWK-NH2 [14-6], the “activity against R5-tropic strain YU2 (in words)” value [9] was “low activity” and the “TI (toxicity index; ratio of cytotoxicity to neutralization IC50 values)” value (TZM-bl cells [1]) was >200 µM.

For Ac-SSHFPWSQYQFWK-NH2 [12-4], the “activity against R5-tropic strain YU2 (in words)” value [9] was “modest gains in potency” and the “TI (toxicity index; ratio of cytotoxicity to neutralization IC50 values)” value (TZM-bl cells [1]) was >500 µM.

With Ac-SSHFPYSQYQFWK-NH2 [12-1] the “TI (toxicity index; ratio of cytotoxicity to neutralization IC50 values)” value (TZM-bl cells [1]) was >500 to 1000 µM.

For Ac-YSSYFPFSQYQWWK-NH2 [40-2], the “glutathione (GST) adduct formation (in words)” value [3] was “never detected GST adducts”, the “inhibition of virion capture by mAb 19b” value [7] was “effectively blocked virus capture” and the “inhibition of virion capture by mAb 268-D” value [7] was “effectively blocked virus capture”. The “inhibition of virion capture by mAb 48d” value [7] was “effectively blocked virus capture; also recorded: to a lesser extent”, the “inhibition of virion capture by mAb B4e8 (V3 tip)” value [7] was “neither 2C nor 40-2 blocked capture; also recorded: neither inhibited virion capture” and the “inhibition of virion capture by mAb D19 (V3 tip)” value [7] was “neither 2C nor 40-2 blocked capture; also recorded: neither inhibited virion capture”. For the same substance, the “TI (toxicity index; ratio of cytotoxicity to neutralization IC50 values)” value (TZM-bl cells [1]) was >250 µM and the “cellular cytotoxicity (in words)” value (TZM-bl cells [1]) was “nontoxic at relevant concentrations”.
